Source: ChEMBL document CHEMBL3399969, “Multifunctional scutellarin-rivastigmine hybrids with cholinergic, antioxidant, biometal chelating and neuroprotective properties for the treatment of Alzheimer's disease” (Bioorg Med Chem, 2015)

Assays:
Acetylcholinesterase = target: T1, Acetylcholinesterase (Rattus norvegicus, UniProt P37136); test: Inhibition of rat cortex AChE using acetylthiocholine iodide as substrate after 15 mins by Ellman method
T1 sequence (P37136 whole entry): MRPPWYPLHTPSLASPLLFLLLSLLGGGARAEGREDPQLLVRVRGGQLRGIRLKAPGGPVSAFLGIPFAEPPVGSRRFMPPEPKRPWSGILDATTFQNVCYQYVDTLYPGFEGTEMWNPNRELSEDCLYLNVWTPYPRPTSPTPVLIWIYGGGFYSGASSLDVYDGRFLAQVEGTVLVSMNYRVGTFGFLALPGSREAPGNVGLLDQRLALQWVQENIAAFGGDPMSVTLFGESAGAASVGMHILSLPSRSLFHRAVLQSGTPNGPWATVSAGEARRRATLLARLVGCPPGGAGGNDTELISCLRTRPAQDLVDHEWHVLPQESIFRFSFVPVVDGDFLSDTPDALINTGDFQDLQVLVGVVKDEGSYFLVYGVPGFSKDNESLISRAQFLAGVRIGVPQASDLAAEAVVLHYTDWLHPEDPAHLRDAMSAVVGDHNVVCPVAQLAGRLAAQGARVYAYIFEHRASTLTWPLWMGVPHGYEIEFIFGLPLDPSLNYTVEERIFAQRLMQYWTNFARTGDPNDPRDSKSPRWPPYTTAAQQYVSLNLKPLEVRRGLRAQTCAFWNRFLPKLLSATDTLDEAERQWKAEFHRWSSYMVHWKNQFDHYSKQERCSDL

[1] = Inhibition of rat serum BuChE using butyrylthiocholine iodide as substrate after 15 mins by Ellman method; format: cell-free
PC-12 = test: Neuroprotective effect against H2O2-induced rat PC12 cell injury assessed as cell viability at 10 uM incubated for 2 hrs prior to H2O2 challenge measured after 24 hrs by MTT assay (reference value: 57.6%); format: functional; settings: read-out: Activity
[2] = Antioxidant activity assessed as trolox equivalent of […]-induced radical scavenging activity by ORAC-FL method; format: physicochemical
Rattus norvegicus = species: Rattus norvegicus; test: Selectivity index, ratio of IC50 for rat serum BuChE to IC50 for rat cortex AChE; format: cell-free
[3] = Metal chelating activity of the compound assessed as Zn2+ complex formation after 30 mins by UV-Vis spectrometry; format: physicochemical; settings: 0.5 h
[4] = Metal chelating activity of the compound assessed as Fe2+ complex formation after 30 mins by UV-Vis spectrometry; format: physicochemical; settings: 0.5 h
[5] = Metal chelating activity of the compound assessed as Cu2+ complex formation after 30 mins by UV-Vis spectrometry; format: physicochemical; settings: 0.5 h
[6] = Metal chelating activity of the compound assessed as Al3+ complex formation after 30 mins by UV-Vis spectrometry; format: physicochemical; settings: 0.5 h

| Structure (SMILES) | IC50 (Acetylcholinesterase) [µM] | IC50 [1] [µM] | viability at 10 µM (PC-12) [%] | Activity [2] | Ratio IC50 (Rattus norvegicus) | Activity [3] | Activity [4] | Activity [5] | Activity [6] |
| --- | --- | --- | --- | --- | --- | --- | --- | --- | --- |
| COc1cc2oc(-c3ccc(OC(=O)N4CCN(C)CC4)cc3)cc(=O)c2c(OC)c1OC | 11.4 | 63.8 | 82.4 | 0.29 | 5.6 |  |  |  |  |
| COc1cc2oc(-c3ccc(O)cc3)cc(=O)c2c(OC)c1OC | > 100 | > 100 |  | 2.6 |  |  |  |  |  |
| CCN(C)C(=O)Oc1cccc(-c2cc(=O)c3c(O)c(OC)c(OC)cc3o2)c1 | 14.8 | > 100 |  | 0.9 | > 6.8 |  |  |  |  |
| COc1cc2oc(-c3ccc(OC(=O)N(C)C)cc3)cc(=O)c2c(OC)c1OC | 8.24 | 7.3 | 73.5 | 0.32 | 0.9 |  |  |  |  |
| COc1cc2oc(-c3cccc(OC(=O)N(C)C)c3)cc(=O)c2c(OC)c1OC | 37.3 | 28.3 | 69.3 | 0.28 | 0.8 |  |  |  |  |
| COc1cc2oc(-c3cccc(OC(=O)N4CCCCC4)c3)cc(=O)c2c(O)c1OC | > 100 | > 100 |  | 1.1 |  |  |  |  |  |
| COc1cc2oc(-c3ccc(OC(=O)N4CCCCC4)cc3)cc(=O)c2c(O)c1OC | 17.8 | > 100 | 79.6 | 1.1 | > 5.6 |  |  |  |  |
| CCN(CC)C(=O)Oc1cccc(-c2cc(=O)c3c(O)c(OC)c(OC)cc3o2)c1 | 10.3 | 34.5 |  | 1.3 | 3.3 |  |  |  |  |
| COc1cc2oc(-c3ccc(OC(=O)N4CCN(Cc5ccccc5)CC4)cc3)cc(=O)c2c(O)c1OC | 9.25 | > 100 | 84.5 | 0.9 | > 10.8 |  |  |  |  |
| COc1cc2oc(-c3ccc(OC(=O)N(C(C)C)C(C)C)cc3)cc(=O)c2c(O)c1OC | > 100 | > 100 | 68.7 | 1 |  |  |  |  |  |
| COc1cc2oc(-c3cccc(OC(=O)N4CCN(Cc5ccccc5)CC4)c3)cc(=O)c2c(OC)c1OC | 87.1 | 7.1 |  | 0.34 | 0.1 |  |  |  |  |
| COc1cc2oc(-c3cccc(OC(=O)N4CCOCC4)c3)cc(=O)c2c(O)c1OC | > 100 | > 100 | 66.1 | 1.2 |  |  |  |  |  |
| CCN(CC)C(=O)Oc1ccc(-c2cc(=O)c3c(OC)c(OC)c(OC)cc3o2)cc1 | 0.34 | 8.2 | 70.3 | 0.36 | 24.1 | Active | Active | Active | Active |
| COc1cc2oc(-c3ccc(OC(=O)N4CCOCC4)cc3)cc(=O)c2c(OC)c1OC | 68.3 | > 100 |  | 0.27 | > 1.5 |  |  |  |  |
| COc1cc2oc(-c3cccc(O)c3)cc(=O)c2c(OC)c1OC | > 100 | > 100 |  | 1.8 |  |  |  |  |  |
| CCN(C)C(=O)Oc1ccc(-c2cc(=O)c3c(O)c(OC)c(OC)cc3o2)cc1 | 2.1 | 38.1 | 78.3 | 1.1 | 18.1 |  |  |  |  |
| COc1cc2oc(-c3cccc(OC(=O)N(C(C)C)C(C)C)c3)cc(=O)c2c(OC)c1OC | 87.5 | > 100 |  | 0.3 | > 1.1 |  |  |  |  |
| COc1cc2oc(-c3cccc(OC(=O)N4CCCCC4)c3)cc(=O)c2c(OC)c1OC | 45.7 | 26.8 | 72.5 | 0.31 | 0.6 |  |  |  |  |

| Structure (SMILES) | IC50 (Acetylcholinesterase) [µM] | IC50 [1] [µM] | viability at 10 µM (PC-12) [%] | Activity [2] | Ratio IC50 (Rattus norvegicus) | Activity [3] | Activity [4] | Activity [5] | Activity [6] |
| --- | --- | --- | --- | --- | --- | --- | --- | --- | --- |
| COc1cc2oc(-c3cccc(O)c3)cc(=O)c2c(O)c1OC | > 100 | > 100 |  | 3.7 |  |  |  |  |  |
| CCN(CC)C(=O)Oc1cccc(-c2cc(=O)c3c(OC)c(OC)c(OC)cc3o2)c1 | 6.11 | 30.1 | 70.8 | 0.31 | 4.9 |  |  |  |  |
| COc1cc2oc(-c3ccc(OC(=O)N(C)C)cc3)cc(=O)c2c(O)c1OC | 17.3 | 61.5 | 76.7 | 1.2 | 3.6 |  |  |  |  |
| COc1cc2oc(-c3ccc(OC(=O)N4CCCCC4)cc3)cc(=O)c2c(OC)c1OC | 21.2 | 15.3 | 65.2 | 0.31 | 0.7 |  |  |  |  |
| CCN(C)C(=O)Oc1ccc(-c2cc(=O)c3c(OC)c(OC)c(OC)cc3o2)cc1 | 1.54 | 6.2 | 75.1 | 0.34 | 4 |  |  |  |  |
| COc1cc2oc(-c3cccc(OC(=O)N4CCN(C)CC4)c3)cc(=O)c2c(O)c1OC | 23.3 | 68.2 |  | 1.2 | 2.9 |  |  |  |  |
| COc1cc2oc(-c3ccc(O)cc3)cc(=O)c2c(O)c1OC [CIRSIMARITIN] | > 100 | > 100 |  | 5.4 |  |  |  |  |  |
| COc1cc2oc(-c3cccc(OC(=O)N4CCOCC4)c3)cc(=O)c2c(OC)c1OC | > 100 | > 100 |  | 0.29 |  |  |  |  |  |
| COc1cc2oc(-c3ccc(OC(=O)N(C(C)C)C(C)C)cc3)cc(=O)c2c(OC)c1OC | 13.7 | 38.2 |  | 0.33 | 2.8 |  |  |  |  |
| CCN(C)C(=O)Oc1cccc(-c2cc(=O)c3c(OC)c(OC)c(OC)cc3o2)c1 | 7.37 | 38.1 | 70.8 | 0.32 | 5.2 |  |  |  |  |
| COc1cc2oc(-c3ccc(OC(=O)N4CCOCC4)cc3)cc(=O)c2c(O)c1OC | > 100 | > 100 | 66.5 | 0.9 |  |  |  |  |  |
| COc1cc2oc(-c3cccc(OC(=O)N4CCN(C)CC4)c3)cc(=O)c2c(OC)c1OC | 31.2 | > 100 | 82.1 | 0.36 | > 3.2 |  |  |  |  |
| COc1cc2oc(-c3ccc(OC(=O)N4CCN(Cc5ccccc5)CC4)cc3)cc(=O)c2c(OC)c1OC | 1.04 | 37.2 | 81.9 | 0.32 | 35.8 |  |  |  |  |
| COc1cc2oc(-c3cccc(OC(=O)N(C(C)C)C(C)C)c3)cc(=O)c2c(O)c1OC | 96.5 | > 100 |  | 1.1 | > 1 |  |  |  |  |
| COc1cc2oc(-c3cccc(OC(=O)N(C)C)c3)cc(=O)c2c(O)c1OC | 25.7 | 23.6 |  | 1.2 | 0.9 |  |  |  |  |
| COc1cc2oc(-c3cccc(OC(=O)N4CCN(Cc5ccccc5)CC4)c3)cc(=O)c2c(O)c1OC | 51.7 | 15.7 | 80.3 | 1.3 | 0.3 |  |  |  |  |
| COc1cc2oc(-c3ccc(OC(=O)N4CCN(C)CC4)cc3)cc(=O)c2c(O)c1OC | 5 | > 100 |  | 1 | > 20 |  |  |  |  |
